This passage reports EC50 and Stabilty results from ChEMBL document CHEMBL4673263, “Evaluation of PNU-159682 antibody drug conjugates (ADCs)” (Bioorg Med Chem Lett, 2020).

The structures appear in SMILES notation.

Series [1] has as its system MES-SA. The series is described as follows: Cytotoxicity against human MES-SA cells assessed as reduction in cell viability. It counts as functional, cell-based.
Series [2] relates to MES-SA/Dx5. The series can be described thus: Cytotoxicity against human MES SA/DX5 cells assessed as reduction in cell viability. It counts as functional, cell-based.
The subject of series [3] is HEK-293T. The series is described as follows: Cytotoxicity against HEK293T cells assessed as reduction in cell viability. As to conditions: Homo sapiens. It is filed as cell-based.
The nature of series [4]: Stability of the compound in rat plasma incubated for 7 days. It is filed as ADME, cell-free. As to conditions: 168 h, time 7 day.
Series [5] can be described thus: Stability of compound in mouse plasma incubated for 7 days. It counts as ADME, cell-free. As to conditions: 168 h, time 7 day.

`COc1cccc2c1C(=O)c1c(O)c3c(c(O)c1C2=O)C[C@@](O)(c1csc(N(C)C)n1)C[C@@H]3O[C@H]1C[C@H]2[C@H](O[C@@H]3[C@@H](OC)OCCN32)[C@H](C)O1`: the values for the EC50 in series [1], in series [2] and in series [3] were 0.07 nM, 0.113 nM and 0.065 nM, respectively.
Regarding `COc1cccc2c1C(=O)c1c(O)c3c(c(O)c1C2=O)C[C@@](O)(c1csc(N(C)C(=O)[C@H](C)NC(=O)[C@@H](NC(=O)CN2C(=O)C=CC2=O)C(C)C)n1)C[C@@H]3O[C@H]1C[C@H]2[C@H](OC3[C@@H](OC)OCCN32)[C@H](C)O1` (stereo partly specified), the Stabilty entry in series [4] and in series [5] was “Stable” throughout.
As to `COc1cccc2c1C(=O)c1c(O)c3c(c(O)c1C2=O)C[C@@](O)(C(=O)CO)C[C@@H]3O[C@H]1C[C@H]2[C@H](O[C@@H]3[C@@H](OC)OCCN32)[C@H](C)O1`, the results for the EC50 in series [1], in series [2] and in series [3] were 0.0002 nM, 0.00038 nM and 0.00037 nM, respectively.
On the same counts, the results for `COc1cccc2c1C(=O)c1c(O)c3c(c(O)c1C2=O)C[C@@](O)(c1nnc(C)[nH]1)C[C@@H]3O[C@H]1C[C@H]2[C@H](O[C@@H]3[C@@H](OC)OCCN32)[C@H](C)O1` are 0.034 nM, greater than 15 nM and 0.033 nM.
Turning to `CNc1nc([C@]2(O)Cc3c(O)c4c(c(O)c3[C@@H](O[C@H]3C[C@H]5[C@H](O[C@@H]6[C@@H](OC)OCCN65)[C@H](C)O3)C2)C(=O)c2c(OC)cccc2C4=O)cs1`, the results for the EC50 in series [1], in series [2] and in series [3] were 0.047 nM, 0.125 nM and 0.052 nM, respectively.
On the same counts, the results for `COc1cccc2c1C(=O)c1c(O)c3c(c(O)c1C2=O)C[C@@](O)(c1cnc(C)[nH]1)C[C@@H]3O[C@H]1C[C@H]2[C@H](O[C@@H]3[C@@H](OC)OCCN32)[C@H](C)O1` are 0.0017 nM, greater than 0.3 nM and 0.024 nM.
With `COc1cccc2c1C(=O)c1c(O)c3c(c(O)c1C2=O)C[C@@](O)(c1csc(N)n1)C[C@@H]3O[C@H]1C[C@H]2[C@H](O[C@@H]3[C@@H](OC)OCCN32)[C@H](C)O1`, the results for the EC50 in series [1], in series [2] and in series [3] were 0.046 nM, 0.139 nM and 0.051 nM, respectively.
Take `COc1cccc2c1C(=O)c1c(O)c3c(c(O)c1C2=O)C[C@@](O)(c1csc(C)n1)C[C@@H]3O[C@H]1C[C@H]2[C@H](O[C@@H]3[C@@H](OC)OCCN32)[C@H](C)O1`: the EC50 in series [1] is 0.0116 nM; in series [2], 0.0101 nM; in series [3], 0.012 nM.
Taken in the same sequence, the figures for `COc1cccc2c1C(=O)c1c(O)c3c(c(O)c1C2=O)C[C@@]1(C[C@@H]3O[C@H]2C[C@H]3[C@H](O[C@@H]4[C@@H](OC)OCCN43)[C@H](C)O2)OC(=O)OCC1=O` were 0.0005 nM, 0.0009 nM and 0.00069 nM.

Broadly, the EC50 is the concentration that produces a half-maximal response.
